According to ChEMBL document CHEMBL1201862, “PubChem BioAssay data set” (2004):
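Briefly, cells in 96-well plates were exposed to five compound concentrations for 48 h, and endpoints were estimated by linear interpolation. GI50 marks 50% less growth.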 The source made the active and inactive calls. Rule as the data show it: active = GI50 up to about 1.1 µM and inactive = higher.

Tests used:
Experiment in all cases: inhibition of tumour cell growth, NCI panel, 48 h
NCI/ADR-RES = system: NCI/ADR-RES
XF498 = system: XF498
SF-539 = system: SF-539
KM-20L2 = system: KM-20L2
SK-MEL-2 = system: SK-MEL-2
M19-MEL = system: M19-MEL
HOP-18 = system: HOP-18
DMS-273 = system: DMS-273
OVCAR-8 = system: OVCAR-8
Malme-3M = system: Malme-3M
NCI-H23 = system: NCI-H23
A549 = system: A549
786-0 = system: 786-0
SR = system: SR
TK-10 = system: TK-10
PC-3 = system: PC-3
T47D = system: T47D
DU-145 = system: DU-145
MDA-N = system: MDA-N
BT-549 = system: BT-549

Structure (SMILES) | GI50 (NCI/ADR-RES) | GI50 (XF498) | GI50 (SF-539) | GI50 (KM-20L2) | GI50 (SK-MEL-2) | GI50 (M19-MEL) | GI50 (HOP-18) | GI50 (DMS-273) | GI50 (OVCAR-8) | GI50 (Malme-3M) | GI50 (NCI-H23) | GI50 (A549) | GI50 (786-0) | GI50 (SR) | GI50 (TK-10) | GI50 (PC-3) | GI50 (T47D) | GI50 (DU-145) | GI50 (MDA-N) | GI50 (BT-549)
S=C(NCCCCCCNC(=S)Nc1c2ccccc2nc2ccccc12)Nc1c2ccccc2nc2ccccc12 | > 88.1 µM (inactive) | > 89.9 µM (inactive) | 70.1 µM (inactive) | 79.4 µM (inactive) | > 100 µM (inactive) | > 100 µM (inactive) | > 100 µM (inactive) | 65.9 µM (inactive) | 89.9 µM (inactive) | > 100 µM (inactive) | > 100 µM (inactive) | 87.5 µM (inactive) | – | – | – | – | – | – | – | –
O=[N+]([O-])c1ccc(-n2nnc(C3=NCCCN3)c2-c2ccc(Cl)cc2)cc1 | – | > 100 µM (inactive) | > 100 µM (inactive) | > 100 µM (inactive) | 33.5 µM (inactive) | 69.5 µM (inactive) | > 100 µM (inactive) | > 100 µM (inactive) | > 100 µM (inactive) | > 100 µM (inactive) | > 100 µM (inactive) | > 100 µM (inactive) | > 100 µM (inactive) | 29 µM (inactive) | > 100 µM (inactive) | – | – | – | – | –
O=C1OCc2cccc3c2-c2c1cccc2C(=O)OC3 | – | – | > 100 µM (inactive) | > 100 µM (inactive) | > 100 µM (inactive) | > 100 µM (inactive) | > 100 µM (inactive) | – | > 100 µM (inactive) | > 100 µM (inactive) | > 100 µM (inactive) | – | – | > 100 µM (inactive) | > 100 µM (inactive) | – | – | – | – | –
Cc1ccccc1NC(=O)C(=O)C(C1OC(=O)c2ccccc21)[N+](=O)[O-] (stereo unspecified) | – | > 100 µM (inactive) | > 100 µM (inactive) | > 100 µM (inactive) | > 100 µM (inactive) | > 100 µM (inactive) | – | > 100 µM (inactive) | > 100 µM (inactive) | – | > 100 µM (inactive) | > 100 µM (inactive) | – | > 100 µM (inactive) | > 100 µM (inactive) | – | – | – | – | –
COC1/C=C/C=C(/C)Cc2cc(O)c(Cl)c(c2)N(C)C(=O)CC(OC(=O)C(C)C)C2(C)OC2C(C)C2CC1(O)NC(=O)O2 (stereo unspecified) | – | – | < 0.01 µM (active) | – | – | – | – | – | < 0.01 µM (active) | – | < 0.01 µM (active) | < 0.01 µM (active) | – | < 0.01 µM (active) | – | < 0.01 µM (active) | > 100 µM (inactive) | < 0.01 µM (active) | < 0.01 µM (active) | < 0.01 µM (active)
CC(C)(C)c1cc(C2COC(=O)COCCOCC(=O)OCCOCCO2)cc(C(C)(C)C)c1O (stereo unspecified) | > 100 µM (inactive) | – | > 82.8 µM (inactive) | – | > 100 µM (inactive) | – | – | – | 41.6 µM (inactive) | > 100 µM (inactive) | 42.7 µM (inactive) | > 100 µM (inactive) | 10 µM (inactive) | 21.8 µM (inactive) | 16.5 µM (inactive) | 22.4 µM (inactive) | 29.2 µM (inactive) | 19.5 µM (inactive) | – | > 51.1 µM (inactive)
CCC(/C=C/c1ccccc1)=N\Nc1ccc(Cl)c(Cl)c1 | 31.9 µM (inactive) | – | 25.8 µM (inactive) | – | 17.7 µM (inactive) | – | – | – | 16 µM (inactive) | 32.1 µM (inactive) | 30.9 µM (inactive) | 39.7 µM (inactive) | 34.4 µM (inactive) | 34.8 µM (inactive) | 56.6 µM (inactive) | 55.6 µM (inactive) | 49.9 µM (inactive) | 89.1 µM (inactive) | 34.3 µM (inactive) | –
N#Cc1c(Cl)c2cccnc2n2c1nc1ccccc12 | 2.69 µM (inactive) | – | 2.35 µM (inactive) | – | 8 µM (inactive) | – | – | – | 1.96 µM (inactive) | 1.84 µM (inactive) | 2.07 µM (inactive) | 6.59 µM (inactive) | 1.77 µM (inactive) | 1.08 µM (active) | 1.67 µM (inactive) | 2.41 µM (inactive) | 2 µM (inactive) | 1.98 µM (inactive) | 3.62 µM (inactive) | 4.44 µM (inactive)
Cc1ccc(C(=O)N/N=C(\N=N\c2ccc([N+](=O)[O-])cc2)c2ccc(N(CCC#N)CCC#N)cc2C)cc1 | > 100 µM (inactive) | – | > 100 µM (inactive) | – | 49.5 µM (inactive) | – | – | – | 28.1 µM (inactive) | > 100 µM (inactive) | > 100 µM (inactive) | 70.1 µM (inactive) | 73.5 µM (inactive) | 63.8 µM (inactive) | > 100 µM (inactive) | 50.1 µM (inactive) | 26.6 µM (inactive) | 97.1 µM (inactive) | 78.9 µM (inactive) | 47.1 µM (inactive)
COc1ccccc1-c1cc(O)c2c(C)ccnc2n1 | 19.3 µM (inactive) | – | 30.8 µM (inactive) | – | 26.7 µM (inactive) | – | – | – | 43.6 µM (inactive) | 39 µM (inactive) | 29.9 µM (inactive) | 43.7 µM (inactive) | – | 14.2 µM (inactive) | > 100 µM (inactive) | – | 16.2 µM (inactive) | 41.2 µM (inactive) | – | 7.1 µM (inactive)
CC(C)N/C(N)=N/C#N | – | > 100 µM (inactive) | > 100 µM (inactive) | > 100 µM (inactive) | > 100 µM (inactive) | > 100 µM (inactive) | > 100 µM (inactive) | – | > 100 µM (inactive) | > 100 µM (inactive) | – | > 100 µM (inactive) | – | – | – | – | – | – | – | –
COC(=O)N1CC2C3C4CC(C(c5ccccc5)=C4c4ccccc4)C3C21 (stereo unspecified) | 16.8 µM (inactive) | – | 13.8 µM (inactive) | – | 19.8 µM (inactive) | – | – | – | 17.8 µM (inactive) | – | 20.9 µM (inactive) | 18 µM (inactive) | – | 11.1 µM (inactive) | 15.8 µM (inactive) | 10 µM (inactive) | 9.82 µM (inactive) | 14.7 µM (inactive) | 20.4 µM (inactive) | 16 µM (inactive)
CCOC(=O)C[n+]1ccc2c([nH]c3cc(OC)ccc32)c1C | > 100 µM (inactive) | 25.9 µM (inactive) | > 100 µM (inactive) | > 65.2 µM (inactive) | > 100 µM (inactive) | > 100 µM (inactive) | > 100 µM (inactive) | > 100 µM (inactive) | > 87.1 µM (inactive) | > 100 µM (inactive) | > 100 µM (inactive) | > 100 µM (inactive) | – | – | – | – | – | – | – | –
CO/N=C(\C)c1ccc(Nc2nc3ccccc3c3occc23)cc1 | 15.6 µM (inactive) | – | 14.2 µM (inactive) | – | 18 µM (inactive) | – | – | – | 16.7 µM (inactive) | 14.6 µM (inactive) | 14.7 µM (inactive) | 17.3 µM (inactive) | 14.2 µM (inactive) | 24.7 µM (inactive) | 12.4 µM (inactive) | 16.2 µM (inactive) | 12.6 µM (inactive) | 15.5 µM (inactive) | 14.6 µM (inactive) | 16.8 µM (inactive)
O=c1oc2cc(O)ccc2c2oc3cc(O)ccc3c12 [COUMESTROL] | 108 µM (inactive) | > 19.8 µM (inactive) | 56.6 µM (inactive) | 41 µM (inactive) | > 125 µM (inactive) | 92.7 µM (inactive) | > 125 µM (inactive) | 54.7 µM (inactive) | 70 µM (inactive) | 79.6 µM (inactive) | 58.5 µM (inactive) | 43.1 µM (inactive) | – | – | – | – | – | – | – | –
BrC1=CN2C[n+]3cc(Br)c4ccccc4c3N=C2c2ccccc21 | > 100 µM (inactive) | – | 11.7 µM (inactive) | – | 7.57 µM (inactive) | – | – | – | 16.7 µM (inactive) | 2.75 µM (inactive) | 21.1 µM (inactive) | 46.3 µM (inactive) | – | 3.18 µM (inactive) | 26.8 µM (inactive) | 13.6 µM (inactive) | 4.14 µM (inactive) | 16.6 µM (inactive) | 6.81 µM (inactive) | 16.9 µM (inactive)
O=[N+]([O-])c1cnccc1-n1nnc2ccccc21 | 20.2 µM (inactive) | 13.8 µM (inactive) | 20.5 µM (inactive) | 29.2 µM (inactive) | 16.5 µM (inactive) | 15.3 µM (inactive) | 14.1 µM (inactive) | 14.1 µM (inactive) | 17.7 µM (inactive) | 17.3 µM (inactive) | 18.2 µM (inactive) | 25.1 µM (inactive) | – | – | – | – | – | – | – | –
CSCSCC(N)CO.Cc1[nH]c(=O)[nH]c(=O)c1/C=C/C(=O)O | > 625 µM (inactive) | > 625 µM (inactive) | > 625 µM (inactive) | > 625 µM (inactive) | > 625 µM (inactive) | > 625 µM (inactive) | > 625 µM (inactive) | > 625 µM (inactive) | 492 µM (inactive) | > 625 µM (inactive) | > 625 µM (inactive) | > 625 µM (inactive) | – | – | – | – | – | – | – | –
